Literature values, collected in US9314478B2, “Method of making an anhydrous, fat soluble, chewable drug delivery formulation” (Argenta Manufacturing Limited, priority 2013, dated 2016).

| Molecule | Aqueous solubility |
| --- | --- |
| Milbemycin oxime | Poor |
| CCCOc1ccc2nc(NC(=O)OC)[nH]c2c1 [Oxibendazole] | Poor |
| Cc1cnc(NC(=O)C2=C(O)c3ccccc3S(=O)(=O)N2C)s1 [Meloxicam] | Poor |
| CC(C(=O)O)c1ccc2c(c1)[nH]c1ccc(Cl)cc12 (stereo not shown) [Carprofen] | Poor |

Next, values leading:

| Aqueous solubility | Molecule |
| --- | --- |
| Soluble | O=C(C1CCCCC1)N1CC(=O)N2CCc3ccccc3C2C1 (stereo not shown) [Praziquantel] |
| Poor | CN1CCCN=C1/C=C/c1cccs1 [Pyrantel] |
| Soluble | Spinosad |
